# Measurements published in patent publication US20190328016A1, “SALT COMPOSITION INCLUDING SARCOSINE” (NESTEC S.A., priority 2016, published 2019).
# Test system: trained panellists
# Assay: Sensory evaluation of tablets by 11 trained panellists
# Assay type: in vivo
# Procedure: Bars coloured black denote a significant difference in a particular taste/sensory characteristic. Unshaded bars denote that there is no significant difference in the characteristic. A positive number represents an increased sensory response of the co-crystal compared to the physical mixture.
# Tablets for sensory evaluation were prepared using a Romaco Kilian Styl'One single-stroke tablet press. […] The tablets were prepared with three compressions of 300 ms and an interval of 200 ms.
# Each of the panellists received a tray with two tablets presented on plastic plates coded with random 3-digit numbers. The tablets had to be crunched with the front teeth and kept in mouth to dissolve slowly (method 1). Alternatively, tablets could be crunched with the front teeth and chewed constantly in the mouth until complete dissolution occurred (method 2).
# Afterwards the panellists were asked to rate the taste of the tablets in respect of the following 12 categories: upfront saltiness (1), overall saltiness (2), sweetness (3), sourness (4), umami (5), friable (6), melting (7), overall persistence (8), saltiness persistence (9), sweetness persistence (10), sourness persistence (11), and tingling (12).
structure (smiles),measurement,setting,value
"N[C@@H](CO)C(=O)O.N[C@@H](CO)C(=O)O.[Cl-].[Na+] [(L-serine)2.sodium chloride co-crystals, (L-serine)2.sodium chloride]",perceived salty taste versus corresponding physical mix,"25 mg sodium chloride per tablet, during and after consumption",significantly more salty
same,overall saltiness versus physical mix,"11 trained panellists, FIG. 2",superior
same,saltiness persistence versus physical mix,"11 trained panellists, FIG. 2",superior
same,upfront saltiness versus physical mix,"11 trained panellists, FIG. 2",superior
